The text below walks through data of ChEMBL document CHEMBL1201862, “PubChem BioAssay data set” (2004).

Among the test systems are NCI-H522; HL-60; BT-549; EKVX; OVCAR-8; MDA-MB-435; DU-145; K562; PC-3; CCRF-CEM; HCT-15; IGROV-1; NCI/ADR-RES; RXF 393; HOP-92; MOLT-4; ACHN; SNB-19; M14; SF-268.
Assay in all cases: NCI tumour cell line growth inhibition, 48 h

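Compound exposure: 48 hours, 5 concentrations, 96-well plates. Here, GI50 denotes the concentration required for 50% inhibition of growth.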 Activity calls are given as the source filed them. Rule as the data show it: active = GI50 up to about 1.1 µM and inactive = higher. A value given as a limit tells only on which side of the number the result lay.

With `CC(C)(CNC(=O)/C(Cl)=C(/Cl)C(=O)O)CNC(=O)/C(Cl)=C(/Cl)C(=O)O`, the GI50 is 29.1 µM (inactive) in the assay with NCI-H522; 34 µM (inactive) in the assay on HL-60; > 100 µM (inactive) in the assay with BT-549; > 100 µM (inactive) in the assay on EKVX; > 100 µM (inactive) with OVCAR-8; > 100 µM (inactive) in the assay with MDA-MB-435. The GI50 in the assay on DU-145 is > 100 µM (inactive); with K562, 40.1 µM (inactive); in the assay on PC-3, > 100 µM (inactive); with CCRF-CEM, 39.3 µM (inactive); in the assay on HCT-15, above 10 µM; in the assay with IGROV-1, > 100 µM (inactive). Besides, the GI50 was > 100 µM (inactive) with NCI/ADR-RES; > 100 µM (inactive) with RXF 393; 78.3 µM (inactive) in the assay on HOP-92; 30.9 µM (inactive) in the assay on MOLT-4; 28.4 µM (inactive) with ACHN; > 100 µM (inactive) in the assay with SNB-19.

For `CCOC(=O)C(O)(CC1=NC(C(=O)OC)(C(=O)OC)C(c2cccc(C=O)c2)O1)C(=O)OCC` (stereo unspecified), the GI50 was 25.3 µM (inactive) in the assay with HL-60; > 100 µM (inactive) with BT-549; > 100 µM (inactive) in the assay with EKVX; > 100 µM (inactive) in the assay on OVCAR-8; > 100 µM (inactive) in the assay with MDA-MB-435; > 100 µM (inactive) with DU-145. For the same compound, the GI50 with K562 was > 100 µM (inactive); with PC-3, > 100 µM (inactive); in the assay with CCRF-CEM, > 100 µM (inactive); in the assay on HCT-15, above 100 µM; in the assay on M14 it was > 100 µM (inactive); in the assay on IGROV-1, > 100 µM (inactive). The GI50 in the assay on NCI/ADR-RES, with RXF 393, with HOP-92, with MOLT-4, in the assay with ACHN and in the assay with SNB-19 was > 100 µM (inactive) throughout.

`O=c1cc(CO)oc(C(O)c2ccccc2)c1O` (stereo unspecified): the GI50 in the assay on NCI-H522, in the assay on HL-60, in the assay on BT-549, in the assay with OVCAR-8, with MDA-MB-435 and with DU-145 was > 100 µM (inactive) in each case. Also, the GI50 in the assay on PC-3 is > 100 µM (inactive); in the assay with HCT-15, above 100 µM; in the assay with M14, > 100 µM (inactive); with SF-268, > 100 µM (inactive); in the assay on IGROV-1, > 100 µM (inactive); in the assay on NCI/ADR-RES, > 100 µM (inactive). The GI50 in the assay on RXF 393, in the assay with HOP-92, in the assay with MOLT-4, in the assay with ACHN and in the assay with SNB-19 was > 100 µM (inactive) in each case.

As to `CC(C)[N+]([O-])(CCCNc1c2ccccc2nc2cccc([N+](=O)[O-])c12)C(C)C`, the GI50 is 0.0294 µM (active) in the assay with NCI-H522; < 0.0428 µM (active) in the assay on HL-60; < 0.0395 µM (active) with BT-549; < 0.0367 µM (active) with EKVX; < 0.0458 µM (active) in the assay on OVCAR-8; < 0.0325 µM (active) with MDA-MB-435. The GI50 is < 0.026 µM (active) in the assay with DU-145; < 0.0355 µM (active) in the assay with K562; < 0.0473 µM (active) in the assay with PC-3; < 0.0412 µM (active) in the assay with CCRF-CEM; 0.0347 µM (active) in the assay on M14; 0.581 µM (active) in the assay on NCI/ADR-RES. The GI50 in the assay on RXF 393 is 0.172 µM (active); in the assay with HOP-92 it was < 0.0355 µM (active); with MOLT-4, < 0.0181 µM (active); in the assay with ACHN it was < 0.0441 µM (active); in the assay with SNB-19, 0.0726 µM (active).

`O=C(Nc1nncs1)NS(=O)(=O)n1cnc2ccccc21`: the GI50 with NCI-H522, in the assay with HL-60, in the assay on BT-549, in the assay with EKVX, with OVCAR-8 and in the assay with MDA-MB-435 was > 100 µM (inactive) in each case. In addition, the GI50 in the assay on DU-145 is > 100 µM (inactive); with PC-3, > 100 µM (inactive); with CCRF-CEM, > 100 µM (inactive); in the assay on HCT-15, above 100 µM; with M14, > 100 µM (inactive); with SF-268, > 100 µM (inactive). Further, the GI50 with IGROV-1, in the assay on NCI/ADR-RES, in the assay with RXF 393, in the assay on HOP-92, with MOLT-4 and in the assay with ACHN was > 100 µM (inactive) throughout. In addition, the GI50 in the assay on SNB-19 is > 100 µM (inactive).

For the compound `NCC(=O)N1CCN(c2nc(N3CCCC3)c3nc(Cl)c(NCc4ccccc4)nc3n2)CC1`, the GI50 is 1.78 µM (inactive) in the assay on NCI-H522; 1.81 µM (inactive) with HL-60; 2.09 µM (inactive) with BT-549; 1.87 µM (inactive) in the assay on EKVX; 1.77 µM (inactive) with OVCAR-8; 1.85 µM (inactive) in the assay on MDA-MB-435. Further, the GI50 with DU-145 is 2.41 µM (inactive); in the assay with PC-3, 2.48 µM (inactive); in the assay on CCRF-CEM, 2.49 µM (inactive); in the assay on HCT-15, 1.97 µM; in the assay on M14, 1.72 µM (inactive); with SF-268, 2.07 µM (inactive). The GI50 in the assay with IGROV-1 was 1.63 µM (inactive); in the assay with NCI/ADR-RES, 8.26 µM (inactive); in the assay with RXF 393, 1.43 µM (inactive); with HOP-92 it was 1.45 µM (inactive); in the assay on MOLT-4, 1.12 µM (inactive); with ACHN, 2.11 µM (inactive). The GI50 in the assay with SNB-19 was 1.82 µM (inactive).

Turning to `O=C1c2ccc(O)cc2OC(c2cc(O)c(O)c(O)c2)C1O` (stereo unspecified) [DIHYDROBINETIN], the GI50 is 24.8 µM (inactive) in the assay on NCI-H522; 19.9 µM (inactive) in the assay on HL-60; 20.5 µM (inactive) with BT-549; 19 µM (inactive) with EKVX; 22 µM (inactive) in the assay with OVCAR-8; 19.8 µM (inactive) with MDA-MB-435. Moreover, the GI50 in the assay on DU-145 was 47.3 µM (inactive); in the assay on PC-3, > 100 µM (inactive); in the assay on CCRF-CEM it was 24.1 µM (inactive); in the assay on HCT-15 it was 33.7 µM; with M14 it was > 100 µM (inactive); in the assay with SF-268, 34.1 µM (inactive). In addition, the GI50 is 18 µM (inactive) with IGROV-1; 25.1 µM (inactive) in the assay on NCI/ADR-RES; > 100 µM (inactive) with RXF 393; > 100 µM (inactive) in the assay with HOP-92; 19.1 µM (inactive) in the assay on MOLT-4; 25.8 µM (inactive) in the assay with ACHN. For the same compound, the GI50 in the assay with SNB-19 was 41.4 µM (inactive).

In the case of `Cc1ccc2c(c1)C=CC1(O2)N(c2ccccc2)C(=S)OC1(C)C` (stereo unspecified), the GI50 in the assay with HL-60 was 5.37 µM (inactive); with BT-549, > 100 µM (inactive); in the assay on EKVX, 30 µM (inactive); with OVCAR-8, > 100 µM (inactive); in the assay with MDA-MB-435, 22.1 µM (inactive); with DU-145, > 100 µM (inactive). The GI50 with K562 was 7.29 µM (inactive); in the assay on PC-3 it was 9.27 µM (inactive); in the assay with CCRF-CEM, 53 µM (inactive); in the assay on HCT-15, 46.2 µM; in the assay on M14 it was 43.8 µM (inactive); in the assay with SF-268 it was 89.5 µM (inactive). For the same compound, the GI50 in the assay with IGROV-1 is 10.1 µM (inactive); in the assay on NCI/ADR-RES, > 100 µM (inactive); in the assay on RXF 393, 73.3 µM (inactive); in the assay with HOP-92 it was 12 µM (inactive); with MOLT-4, 29.9 µM (inactive); with ACHN, > 100 µM (inactive). Moreover, the GI50 in the assay on SNB-19 is > 100 µM (inactive).
